In this experiment the test system is outer hair cells in organotypic cultures of the neonatal organ of Corti. Put plainly: Hair cell counts in neomycin-exposed cochlear explant cultures. Format: cell-based, rat. As for the experimental part:
(§1) The basal half of cochleas containing the basal and middle turns were dissected from postnatal day 2 Wistar rats. The cultures were maintained on Nuclepore filters (pore size […]; Pleasanton, Calif.) placed on a metal grid in F12 medium (Life Technologies, Gaithersburg, Md.) containing 15% fetal bovine serum (Life Technologies). After a 2-hour-long stabilization period, explants were exposed to 100 mM neomycin sulfate (Sigma, St Louis, Mo.) for 48 hr.
(§2) Explants were fixed with 4% paraformaldehyde/0.5% glutaraldehyde in phosphate buffered saline (PBS), pH 7.4, for 30 min and dissected for surface preparations. They were stained with a 1:100 dilution of rhodamine-phalloidin in PBS containing 0.25% Triton X-l 00 overnight at 4° C. and mounted in Vectashield (Vector). Outer hair cell (OHC) numbers were quantified with a Zeiss Axiovert 100/135 epifluorescent microscope (Germany) connected to a Bio-Rad MRC-1024 confocal laser scanning system (Richmond, Calif.). Hair cells were characterized as missing if no stereocilia and cuticular plate were observed. Numbers of OHCs were evaluated using a 40×objective lens and an ocular grid. Nine to 1 fields filled by 30 OHCs in each of the 3 rows (when all of them were present) were studied from each explant. Basal and middle coils were analyzed separately. Three separate experiments, each including 4 explants of both conditions (neomycin and neomycin plus Formula II) were analyzed.
as §1, with “μM” for “mM”, “hr. The compounds of Formula I and the compound of Formula I were added at 500 nM at the time of initiation of the cultures and every 12 hr thereafter. Neomycin plus vehicle was used as a control.” for “hr.”
as §2, with “X-100” for “X-l 00”, “40x objective” for “40×objective”, “Several” for “Nine to 1”, “separately.” for “separately. Three separate experiments, each including 4 explants of both conditions (neomycin and neomycin plus Formula II) were analyzed.”

Structures are written as SMILES. “Also recorded” adds a separate entry of the source.

Consider one compound from patent US6448283B1, “Methods for preventing/treating damage to sensory hair cells and cochlear neurons” (Cephalon, Inc., priority 1998, dated 2002).

For `CCSCc1ccc2c(c1)c1c3c(c4c5cc(CSCC)ccc5n5c4c1n2C1C[C@](O)(C(=O)OC)[C@]5(C)O1)CNC3=O` [Formula II], the “OHCs in the basal turn preserved” value (500 nM Formula II co-incubated with neomycin for 48 hr, n=12) is on record as “Approximately 90%”. Moreover, the “neomycin-induced sensory hair cell loss/degeneration” value (500 nM compound together with neomycin, 48 hr, in words) is recorded as “reduced; also recorded: prevented hair cell loss”. For the setting “Rattus norvegicus, 48 h, compound 500 nM plus 100 μM neomycin 48 hr, NEO = neomycin plus vehicle, each line a separate count, read-out: % preserved”, the viability at 0.5 µM was determined as 92%.
